# Like-named read-outs stand apart in the source and are kept apart here.
# Target: CD137 (Homo sapiens, UniProt Q07011)
# Test: CD137 reporter assay (Promega CD137 luciferase reporter, Jurkat cells) in co-culture with Nectin-4-expressing tumor cells
# Type: cell-based
# Set-up: host or cells: Jurkat reporter cells
# [1] = EC50 (nM), co-culture with HT1376, Table 2A
# [2] = co-culture with HT1376, Table 2A
# Chain of CD137 (Q07011 24-255): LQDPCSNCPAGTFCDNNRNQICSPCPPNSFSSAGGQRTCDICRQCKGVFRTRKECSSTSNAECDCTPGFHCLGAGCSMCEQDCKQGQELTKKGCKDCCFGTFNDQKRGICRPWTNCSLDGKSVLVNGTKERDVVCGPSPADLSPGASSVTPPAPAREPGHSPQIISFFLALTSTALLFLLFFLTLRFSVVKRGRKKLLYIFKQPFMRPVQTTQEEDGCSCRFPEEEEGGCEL
SMILES,EC50 [1],Emax [2],EC50
CCCC[C@@H]1NC(=O)[C@H](Cc2ccc(O)cc2)NC(=O)[C@@H]2CCCN2C(=O)[C@H](CC(=O)O)NC(=O)[C@H](C)NC(=O)[C@H](Cc2ccccc2)NC(=O)[C@@H]2CSCCC(=O)N3CN(CN(C3)C(=O)CCSC[C@@H](C(=O)N[C@@H](C)C(N)=O)NC1=O)C(=O)CCSC[C@H](NC(C)=O)C(=O)N[C@@H](CC(C)(C)C)C(=O)N1CCC[C@H]1C(=O)N[C@@H](CCC(=O)O)C(=O)N[C@H](CCCCNC(=O)CCc1cn(CCOCCOCCOCCOCCOCCOCCOCCOCCOCCOCCNC(=O)c3cc(C(=O)NCCOCCOCCOCCOCCOCCOCCOCCOCCOCCOCCn4cc(CCC(=O)NCCCC[C@H]5NC(=O)[C@H](CCC(=O)O)NC(=O)[C@@H]6CCCN6C(=O)[C@H](CC(C)(C)C)NC(=O)[C@@H](NC(C)=O)CSCCC(=O)N6CN7CN(C6)C(=O)CCSC[C@H](NC(=O)[C@H](Cc6ccc(O)cc6)NC(=O)[C@@H]6CCCN6C5=O)C(=O)N[C@@H](Cc5ccccc5)C(=O)N[C@@H](C)C(=O)N[C@@H](CC(=O)O)C(=O)N5CCC[C@H]5C(=O)N[C@@H](Cc5ccc(O)cc5)C(=O)N[C@@H](CCCC)C(=O)N[C@H](C(=O)N[C@@H](C)C(N)=O)CSCCC7=O)nn4)cc(C(=O)NCCOCCOCCOCCOCCOCCOCCOCCOCCOCCOCCn4cc(CCC(=O)N[C@H]5CSCCC(=O)N6CN7CN(C6)C(=O)CCSC[C@H](NC(=O)[C@@H](CC(=O)O)NC(=O)[C@H](Cc6cccc8ccccc68)NC(=O)[C@@H]6CCCN6C5=O)C(=O)N[C@@H](CCSC)C(=O)N[C@@H](CCCCNC(=N)N)C(=O)N[C@@H](CC(=O)O)C(=O)N[C@@H](Cc5c[nH]c6ccccc56)C(=O)N[C@@H](CO)C(=O)N[C@@H]([C@@H](C)O)C(=O)N5CCC[C@H]5C(=O)N5C[C@H](O)C[C@H]5C(=O)N[C@@H](Cc5c[nH]c6ccccc56)C(=O)N[C@H](C(N)=O)CSCCC7=O)nn4)c3)nn1)C(=O)N1CCC[C@H]1C(=O)N[C@@H](Cc1ccc(O)cc1)C(=O)N2 [BCY10918],0.16 nM,–,–
CCCC[C@@H]1NC(=O)[C@H](Cc2ccc(O)cc2)NC(=O)[C@@H]2CCCN2C(=O)[C@H](CC(=O)O)NC(=O)[C@H](C)NC(=O)[C@H](Cc2ccccc2)NC(=O)[C@@H]2CSCCC(=O)N3CN(CN(C3)C(=O)CCSC[C@@H](C(=O)N[C@@H](CNC(=O)CCc3cn(CCOCCOCCOCCOCCOCCOCCOCCOCCOCCOCCNC(=O)c4cc(C(=O)NCCOCCOCCOCCOCCOCCOCCOCCOCCOCCOCCn5cc(CCC(=O)NC[C@H](NC(=O)[C@@H]6CSCCC(=O)N7CN8CN(C7)C(=O)CCSC[C@H](NC(=O)[C@H](Cc7ccc(O)cc7)NC(=O)[C@@H]7CCCN7C(=O)[C@@H](C)NC(=O)[C@H](CCC(=O)O)NC(=O)[C@@H]7CCCN7C(=O)[C@H](CC(C)(C)C)NC(=O)[C@@H](NC(C)=O)CSCCC8=O)C(=O)N[C@@H](Cc7ccccc7)C(=O)N[C@@H](C)C(=O)N[C@@H](CC(=O)O)C(=O)N7CCC[C@H]7C(=O)N[C@@H](Cc7ccc(O)cc7)C(=O)N[C@@H](CCCC)C(=O)N6)C(N)=O)nn5)cc(C(=O)NCCOCCOCCOCCOCCOCCOCCOCCOCCOCCOCCn5cc(CCC(=O)N[C@H]6CSCCC(=O)N7CN8CN(C7)C(=O)CCSC[C@H](NC(=O)[C@@H](CC(=O)O)NC(=O)[C@H](Cc7cccc9ccccc79)NC(=O)[C@@H]7CCCN7C6=O)C(=O)N[C@@H](CCSC)C(=O)N[C@@H](CCCCNC(=N)N)C(=O)N[C@@H](CC(=O)O)C(=O)N[C@@H](Cc6c[nH]c7ccccc67)C(=O)N[C@@H](CO)C(=O)N[C@@H]([C@@H](C)O)C(=O)N6CCC[C@H]6C(=O)N6C[C@H](O)C[C@H]6C(=O)N[C@@H](Cc6c[nH]c7ccccc67)C(=O)N[C@H](C(N)=O)CSCCC8=O)nn5)c4)nn3)C(N)=O)NC1=O)C(=O)CCSC[C@H](NC(C)=O)C(=O)N[C@@H](CC(C)(C)C)C(=O)N1CCC[C@H]1C(=O)N[C@@H](CCC(=O)O)C(=O)N[C@H](C)C(=O)N1CCC[C@H]1C(=O)N[C@@H](Cc1ccc(O)cc1)C(=O)N2 [BCY10919],0.19 nM,62 fold induction over background,–
CCCC[C@@H]1NC(=O)[C@H](Cc2ccc(O)cc2)NC(=O)[C@@H]2CCCN2C(=O)[C@H](CC(=O)O)NC(=O)[C@H](C)NC(=O)[C@H](Cc2ccccc2)NC(=O)[C@@H]2CSCCC(=O)N3CN(CN(C3)C(=O)CCSC[C@@H](C(=O)N[C@@H](C)C(N)=O)NC1=O)C(=O)CCSC[C@H](NC(C)=O)C(=O)N[C@@H](CC(C)(C)C)C(=O)N1CCC[C@H]1C(=O)N[C@@H](CCC(=O)O)C(=O)N[C@H](CCCCNC(=O)CCc1cn(CCOCCOCCOCCOCCOCCOCCOCCOCCOCCOCCNC(=O)CCOCC(COCCC(=O)NCCOCCOCCOCCOCCOCCOCCOCCOCCOCCOCCn3cc(CCC(=O)NCCCC[C@H]4NC(=O)[C@H](CCC(=O)O)NC(=O)[C@@H]5CCCN5C(=O)[C@H](CC(C)(C)C)NC(=O)[C@@H](NC(C)=O)CSCCC(=O)N5CN6CN(C5)C(=O)CCSC[C@H](NC(=O)[C@H](Cc5ccc(O)cc5)NC(=O)[C@@H]5CCCN5C4=O)C(=O)N[C@@H](Cc4ccccc4)C(=O)N[C@@H](C)C(=O)N[C@@H](CC(=O)O)C(=O)N4CCC[C@H]4C(=O)N[C@@H](Cc4ccc(O)cc4)C(=O)N[C@@H](CCCC)C(=O)N[C@H](C(=O)N[C@@H](C)C(N)=O)CSCCC6=O)nn3)(COCCC(=O)NCCOCCOCCOCCOCCOCCOCCOCCOCCOCCOCCn3cc(CCC(=O)NCCCC[C@H]4NC(=O)[C@H](CCC(=O)O)NC(=O)[C@@H]5CCCN5C(=O)[C@H](CC(C)(C)C)NC(=O)[C@@H](NC(C)=O)CSCCC(=O)N5CN6CN(C5)C(=O)CCSC[C@H](NC(=O)[C@H](Cc5ccc(O)cc5)NC(=O)[C@@H]5CCCN5C4=O)C(=O)N[C@@H](Cc4ccccc4)C(=O)N[C@@H](C)C(=O)N[C@@H](CC(=O)O)C(=O)N4CCC[C@H]4C(=O)N[C@@H](Cc4ccc(O)cc4)C(=O)N[C@@H](CCCC)C(=O)N[C@H](C(=O)N[C@@H](C)C(N)=O)CSCCC6=O)nn3)COCCC(=O)NCCOCCOCCOCCOCCOCCOCCOCCOCCOCCOCCn3cc(CCC(=O)NCCC(=O)N[C@H]4CSCCC(=O)N5CN6CN(C5)C(=O)CCSC[C@H](NC(=O)[C@@H](CC(=O)O)NC(=O)[C@H](Cc5cccc7ccccc57)NC(=O)[C@@H]5CCCN5C4=O)C(=O)N[C@@H](CCSC)C(=O)N[C@@H](CCCCNC(=N)N)C(=O)N[C@@H](CC(=O)O)C(=O)N[C@@H](Cc4c[nH]c5ccccc45)C(=O)N[C@@H](CO)C(=O)N[C@@H]([C@@H](C)O)C(=O)N4CCC[C@H]4C(=O)N4C[C@H](O)C[C@H]4C(=O)N[C@@H](Cc4c[nH]c5ccccc45)C(=O)N[C@H](C(N)=O)CSCCC6=O)nn3)nn1)C(=O)N1CCC[C@H]1C(=O)N[C@@H](Cc1ccc(O)cc1)C(=O)N2 [BCY11022],–,66 fold induction over background,0.2 nM
CCCC[C@@H]1NC(=O)[C@H](Cc2ccc(O)cc2)NC(=O)[C@@H]2CCCN2C(=O)[C@H](CC(=O)O)NC(=O)[C@H](C)NC(=O)[C@H](Cc2ccccc2)NC(=O)[C@@H]2CSCCC(=O)N3CN(CN(C3)C(=O)CCSC[C@@H](C(=O)N[C@@H](C)C(N)=O)NC1=O)C(=O)CCSC[C@H](NC(C)=O)C(=O)N[C@@H](CC(C)(C)C)C(=O)N1CCC[C@H]1C(=O)N[C@@H](CCC(=O)O)C(=O)N[C@H](CCCCNC(=O)CCc1cn(CCOCCOCCOCCOCCOCCOCCOCCOCCOCCOCCNC(=O)CCOCCN(CCOCCC(=O)NCCOCCOCCOCCOCCOCCOCCOCCOCCOCCOCCn3cc(CCC(=O)NCCCC[C@H]4NC(=O)[C@H](CCC(=O)O)NC(=O)[C@@H]5CCCN5C(=O)[C@H](CC(C)(C)C)NC(=O)[C@@H](NC(C)=O)CSCCC(=O)N5CN6CN(C5)C(=O)CCSC[C@H](NC(=O)[C@H](Cc5ccc(O)cc5)NC(=O)[C@@H]5CCCN5C4=O)C(=O)N[C@@H](Cc4ccccc4)C(=O)N[C@@H](C)C(=O)N[C@@H](CC(=O)O)C(=O)N4CCC[C@H]4C(=O)N[C@@H](Cc4ccc(O)cc4)C(=O)N[C@@H](CCCC)C(=O)N[C@H](C(=O)N[C@@H](C)C(N)=O)CSCCC6=O)nn3)CCOCCC(=O)NCCOCCOCCOCCOCCOCCOCCOCCOCCOCCOCCn3cc(CCC(=O)N[C@H]4CSCCC(=O)N5CN6CN(C5)C(=O)CCSC[C@H](NC(=O)[C@@H](CC(=O)O)NC(=O)[C@H](Cc5cccc7ccccc57)NC(=O)[C@@H]5CCCN5C4=O)C(=O)N[C@@H](CCSC)C(=O)N[C@@H](CCCCNC(=N)N)C(=O)N[C@@H](CC(=O)O)C(=O)N[C@@H](Cc4c[nH]c5ccccc45)C(=O)N[C@@H](CO)C(=O)N[C@@H]([C@@H](C)O)C(=O)N4CCC[C@H]4C(=O)N4C[C@H](O)C[C@H]4C(=O)N[C@@H](Cc4c[nH]c5ccccc45)C(=O)N[C@H](C(N)=O)CSCCC6=O)nn3)nn1)C(=O)N1CCC[C@H]1C(=O)N[C@@H](Cc1ccc(O)cc1)C(=O)N2 [BCY11027],0.18 nM,–,–
CCCC[C@@H]1NC(=O)[C@H](Cc2ccc(O)cc2)NC(=O)[C@@H]2CCCN2C(=O)[C@H](CCC(=O)O)NC(=O)[C@H](C)NC(=O)[C@H](Cc2ccccc2)NC(=O)[C@@H]2CSCCC(=O)N3CN(CN(C3)C(=O)CCSC[C@H](NC(C)=O)C(=O)N[C@@H](CC(C)(C)C)C(=O)N3CCC[C@H]3C(=O)N[C@@H](CCC(=O)O)C(=O)N[C@H](CCCCNC(=O)CCc3cn(CCOCCOCCOCCN(CCOCCOCCOCCC(=O)N[C@H]4CSCCC(=O)N5CN6CN(C5)C(=O)CCSC[C@H](NC(=O)[C@@H](CC(=O)O)NC(=O)[C@H](Cc5cccc7ccccc57)NC(=O)[C@@H]5CCCN5C4=O)C(=O)N[C@@H](CCSC)C(=O)N[C@@H](CCCCNC(=N)N)C(=O)N[C@@H](CC(=O)O)C(=O)N[C@@H](Cc4c[nH]c5ccccc45)C(=O)N[C@@H](CO)C(=O)N[C@@H]([C@@H](C)O)C(=O)N4CCC[C@H]4C(=O)N4C[C@H](O)C[C@H]4C(=O)N[C@@H](Cc4c[nH]c5ccccc45)C(=O)N[C@H](C(N)=O)CSCCC6=O)CCOCCOCCOCCn4cc(CCC(=O)NCCCC[C@H]5NC(=O)[C@H](CCC(=O)O)NC(=O)[C@@H]6CCCN6C(=O)[C@H](CC(C)(C)C)NC(=O)[C@@H](NC(C)=O)CSCCC(=O)N6CN7CN(C6)C(=O)CCSC[C@H](NC(=O)[C@H](Cc6ccc(O)cc6)NC(=O)[C@@H]6CCCN6C5=O)C(=O)N[C@@H](Cc5ccccc5)C(=O)N[C@@H](C)C(=O)N[C@@H](CCC(=O)O)C(=O)N5CCC[C@H]5C(=O)N[C@@H](Cc5ccc(O)cc5)C(=O)N[C@@H](CCCC)C(=O)N[C@H](C(N)=O)CSCCC7=O)nn4)nn3)C(=O)N3CCC[C@H]3C(=O)N[C@@H](Cc3ccc(O)cc3)C(=O)N2)C(=O)CCSC[C@@H](C(N)=O)NC1=O [BCY12487],–,12 fold induction over background,–

# Source: patent US20230129258A1, “HETEROTANDEM BICYCLIC PEPTIDE COMPLEXES” (BicycleTx Limited, priority 2019, published 2023)
